The record followed here is publication PMC7292537, “BGAL1 depletion boosts the level of β‐galactosylation of N‐ and O‐glycans in N. benthamiana” (Plant Biotechnology Journal, 2020).

The subject of the assay is T1, NbBGAL1 (SPα-BGAL1).
T1 construct: mature residues 25-846 (GH35 + Gal-lectin domain), own signal peptide replaced by barley alpha-amylase signal peptide, C-terminal StrepII tag (WSHPQFEK); transiently expressed in N. benthamiana, apoplastic fluid not purified; 95 kDa full length plus 48 kDa GH35 and 38 kDa truncated forms; precursor 846 aa
The experiment in a line: fluorescein release, Hanes-Woolf and Lineweaver-Burk. Format: biochemical, Nicotiana benthamiana. To be noted: read-out: apparent KM; apoplastic fluid with overexpressed enzyme; 50 mM MES pH 5.0, 25 °C, 1 h; FDG 0-250 µM (printed unit mM doubtful, perhaps µM); unit of the source corrected; heading: apparent KM.

The structures appear in SMILES notation.

What is called Km is the substrate concentration at which the rate is half of its maximum. For `O=C1OC2(c3ccc(O[C@@H]4O[C@H](CO)[C@H](O)[C@H](O)[C@H]4O)cc3Oc3cc(O[C@@H]4O[C@H](CO)[C@H](O)[C@H](O)[C@H]4O)ccc32)c2ccccc21` [FDG, fluorescein di-β-D-galactopyranoside], the Km is 0.0298 mM.
